From the Kinase Knowledgebase extract (Sharma et al. 2016)

Biological target: EGFR (UniProt P00533)
Sequence (P00533 whole entry, looked up): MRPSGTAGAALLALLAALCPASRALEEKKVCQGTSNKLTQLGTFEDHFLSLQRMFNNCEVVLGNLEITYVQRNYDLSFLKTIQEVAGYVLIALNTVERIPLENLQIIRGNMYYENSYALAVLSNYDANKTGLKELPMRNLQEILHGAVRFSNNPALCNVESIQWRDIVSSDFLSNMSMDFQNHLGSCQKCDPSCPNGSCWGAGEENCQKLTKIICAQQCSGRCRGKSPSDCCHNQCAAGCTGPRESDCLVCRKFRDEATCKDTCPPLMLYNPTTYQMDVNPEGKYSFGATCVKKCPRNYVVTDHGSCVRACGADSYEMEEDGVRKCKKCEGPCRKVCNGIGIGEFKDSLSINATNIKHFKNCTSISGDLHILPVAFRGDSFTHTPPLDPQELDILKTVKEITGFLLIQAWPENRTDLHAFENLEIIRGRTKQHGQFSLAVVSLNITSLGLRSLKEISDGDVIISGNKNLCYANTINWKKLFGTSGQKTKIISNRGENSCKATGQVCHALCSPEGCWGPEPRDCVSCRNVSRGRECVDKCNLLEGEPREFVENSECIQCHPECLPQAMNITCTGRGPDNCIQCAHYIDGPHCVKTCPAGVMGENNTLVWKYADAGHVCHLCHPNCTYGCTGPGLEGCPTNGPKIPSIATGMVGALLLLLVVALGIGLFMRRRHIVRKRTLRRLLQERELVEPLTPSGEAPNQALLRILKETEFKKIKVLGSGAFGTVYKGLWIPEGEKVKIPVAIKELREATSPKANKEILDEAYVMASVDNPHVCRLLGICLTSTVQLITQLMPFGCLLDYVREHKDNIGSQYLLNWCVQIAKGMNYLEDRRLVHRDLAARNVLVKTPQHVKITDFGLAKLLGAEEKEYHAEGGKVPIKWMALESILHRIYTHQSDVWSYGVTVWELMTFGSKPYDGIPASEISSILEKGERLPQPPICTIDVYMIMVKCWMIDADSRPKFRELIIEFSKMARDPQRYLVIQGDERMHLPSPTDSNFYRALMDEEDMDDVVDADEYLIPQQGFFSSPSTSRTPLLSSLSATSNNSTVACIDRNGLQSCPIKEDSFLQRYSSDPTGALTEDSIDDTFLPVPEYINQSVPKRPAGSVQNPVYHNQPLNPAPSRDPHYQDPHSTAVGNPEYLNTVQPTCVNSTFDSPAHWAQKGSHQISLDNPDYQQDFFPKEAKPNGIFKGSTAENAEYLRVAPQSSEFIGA

SMILES	IC50 [µM]
O=C1C(c2ccccc2)Cc2cnc(Nc3ccccc3)nc2N1c1ccccc1 (centres undefined)	< 10
COc1ccc(C2Cc3cnc(Nc4ccccc4)nc3N(c3ccccc3)C2=O)cc1 (centres undefined)	< 10
O=C1C(c2cc(C(F)(F)F)cc(C(F)(F)F)c2)Cc2cnc(Nc3ccccc3)nc2N1c1ccccc1 (centres undefined)	> 10
O=C1C(c2cccnc2)Cc2cnc(Nc3ccccc3)nc2N1c1ccccc1 (centres undefined)	< 10
O=C1C(c2ccncc2)Cc2cnc(Nc3ccccc3)nc2N1c1ccccc1 (centres undefined)	< 10
Cc1ccccc1C1Cc2cnc(Nc3ccccc3)nc2N(c2ccccc2)C1=O (centres undefined)	< 10
COc1ccc(C2Cc3cnc(Nc4ccc(OC)nc4)nc3N(c3ccccc3)C2=O)cc1 (centres undefined)	< 10
COc1ccc(C2Cc3cnc(Nc4ccccc4)nc3N(CC(C)C)C2=O)cc1 (centres undefined)	< 10
COc1ccccc1C1Cc2cnc(Nc3ccccc3)nc2N(c2ccccc2)C1=O (centres undefined)	< 10
O=C1C(c2c(Cl)cccc2Cl)Cc2cnc(Nc3ccccc3)nc2N1c1ccccc1 (centres undefined)	< 10
COc1cc(OC)cc(C2Cc3cnc(Nc4ccccc4)nc3N(c3ccccc3)C2=O)c1 (centres undefined)	< 10
COc1ccc(OC)c(C2Cc3cnc(Nc4ccccc4)nc3N(c3ccccc3)C2=O)c1 (centres undefined)	< 10
COc1ccc(C2Cc3cnc(Nc4cccnc4)nc3N(CC3CC3)C2=O)cc1 (centres undefined)	< 10
COc1ccc(C2Cc3cnc(Nc4ccccc4)nc3N(c3ccccc3)C2=O)cc1OC (centres undefined)	> 10
